# Tests used:
# MO3-13 cells = assay: Determination of reactive oxygen species (DCF fluorescence) in MO3-13 cells; type: cell-based, human; conditions: 50 μM peptide 30 min
# Description: (§1) FIG. 10A: DDSK peptide reverts the effects of Ig from MS patients on ROS levels in MO3-13 cells. MO3-13 cells were grown to semi-confluence in 24 multiwell plates and incubated for 18 h in medium containing 0.2% FBS. The cells were washed twice with FBS free medium, incubated with 50 μM of DDSK for 30 min and then with 200 μg/ml of IgG from Control (IgGCtr) or MS (IgGMS) patients for 30 min. Then, the cells were incubated with 10 μM DCHF-DA for 10 min, washed three times and DCF fluorescence was measured using a plate reader fluorometer. The histograms show the mean+/−SEM values obtained in 5 different experiments from 7 control and 7 MS subjects. # p<0.05 vs IgGCtr; *p<0.05 vs IgGMS.
# as §1, with “MO3-13” for “FIG. 10A: DDSK peptide reverts the effects of Ig from MS patients on ROS levels in MO3-13 cells. MO3-13”, “Scrambled peptide (Sc)” for “DDSK”, “obtained” for “obtained in 5 different experiments”, “3” for “7”, “subjects.” for “subjects. # p<0.05 vs IgGCtr;”, “IgGCtr.” for “IgGMS.”
# ROS levels were determined using the membrane-permeant fluorogenic probe 5,6-carboxy-2′,7′-dichlorofluoresceindiacetate, DCHFDA (Molecular Probes, Leiden, the Netherlands). The assay was based on the fluorescence detection of dichlorofluorescein (DCF), formed by ROS-mediated oxidation of the non-fluorescent precursor, dichlorofluorescin.
# MO3-13 cells were grown to semi-confluence in 24 multiwell plates (45000 cell/well) and incubated for 18 h in medium containing 0.2% FBS before the experiments. […] DCF fluorescence was measured using the plate reader Fluoroskan Ascent FL fluorometer (Thermo Electron Oy, Vantaa, Finland) and data analyzed by Ascent software.
# [1] = system: 5HT2a receptor downstream signaling in MO3-13 cells; assay: Western blotting of proteins downstream of the 5HT2a receptor in MO3-13 cells; type: cell-based, human
# Description: The same membrane was also incubated with α-Tubulin antibody to show the protein loading.
# Western blotting analysis of DUOX1/2 expression levels in MO3-13 cells harvested for 18 h in medium containing 0.2% FBS, preincubated with DDSK (50 uM) for 30 min in serum-free medium and then stimulated for 30 min with IgG (200 μg/ml) purified from serum of Control (IgCtr) or MS (IgMS) patients.
# (§2) Western blotting analysis of P-ERK1/2 expression levels in MO3-13 cells harvested for 18 h in medium containing 0.2% FBS, preincubated with DDSK (50 uM) for 30 min in serum-free medium and then stimulated for 30 min with IgG (200 μg/ml) purified from serum of Control (Ig Ctr) or MS (IgMS) patients.
# Western blotting analysis of NOX3 expression levels in MO3-13 cells harvested for 18 h in medium containing 0.2% FBS, preincubated with DDSK (50 uM) for 30 min in serum-free medium and then stimulated for30 min with IgG (200 μg/ml) purified from serum of Control (IgCtr) or MS (IgMS) patients.
# as §2, with “of H-Ras” for “of P-ERK1/2”, “stimulated for30” for “stimulated for 30”, “patients. The same membrane was incubated with α-Tubulin antibody to show the protein loading.” for “patients.”
# Total cells lysates were obtained in RIPA buffer (50 mM Tris-HCl, pH 7.5, NaCl 150 mM, 1% NP40, 0.5% deoxycholate, 0.1% SDS) containing 2.5 mM Na-pyrophosphate, 1 mM β-glycerophosphate, 1 mM NaVO4, 1 mM NaF, 0.5 mM PMSF, and a cocktail of protease inhibitors (Roche, USA). The cells were kept for 15 min at 4° C. and disrupted by repeated aspiration through a 21-gauge needle. Cell lysates were centrifuged for 10 min at 13000 rpm and the pellets were discarded. Fifty micrograms of total proteins were subjected to SDS-PAGE under reducing conditions. […] Membranes were placed in 5% non-fat milk in […], 0.5% Tween 20 (TBST) at 4° C. for 2 h to block the nonspecific binding sites. Filters were incubated with specific antibodies before being washed three times in TBST and then incubated with a peroxidase-conjugated secondary antibody (Santa Cruz). After washing with TBST, peroxidase activity was detected with the ECL system (GE-Healthcare, UK).
# The filters were also probed with an anti α-tubulin antibody (Sigma, USA). […] Densitometric values were normalized to α-tubulin.
# [2] = 50 uM peptide 30 min, then IgMS 200 μg/ml 30 min
sequence,measurement,setting,value
DDSKVFKEGS,effect of peptide preincubation on ROS levels of IgG MS treated cells,MO3-13 cells; then 200 μg/ml IgG MS 30 min,reverted the effect
same,effect of peptide preincubation on ROS levels of IgGCtr treated samples,MO3-13 cells; then 200 μg/ml IgGCtr 30 min,did not significantly affect
same,effect of peptide preincubation on IgMS-increased DUOX1/2 protein levels,[1]; [2],reverted the effect
same,effect of peptide preincubation on IgMS-increased HaRas protein levels,[1]; [2],reverted the effect
same,effect of peptide preincubation on IgMS-increased NOX3 protein levels,[1]; [2],reverted the effect
same,effect of peptide preincubation on IgMS-increased P-ERK1/2 protein levels,[1]; [2],reverted the effect
same,"effect of peptide on protein levels (DUOX1/2, P-ERK1/2, NOX3, HaRas) in cells incubated with IgG from control subjects","[1]; 50 uM peptide, IgG control 200 μg/ml",did not significantly modify
